A short description of data set [1]: PDMS sheets cleaned by Soxhlet with ethyl acetate; batch shaking method with a mixture of all chemicals at several PDMS-mass to water-volume ratios and spiked levels; vials shaken on an orbital shaker at room temperature in the dark, sampled at two equilibration times; PDMS extracts and water quantified by LC-HRMS (Orbitrap); D from the slope of C_PDMS on C_w or their ratio; value is the mean over that pH's experiments (individual experiments in the SI's concentrations table), sd is the table's stdev. The following applies: PDMS (polydimethylsiloxane silicone sheet), phosphate buffer at three target pH values (the paper's methods).

Data set [2] in a line: neutral chemical: log K is the mean of log D over all measurements at the three pH values (D shown independent of pH, paired t-test); sd is the table's stddev. PDMS sheets cleaned by Soxhlet with ethyl acetate; batch shaking method with a mixture of all chemicals at several PDMS-mass to water-volume ratios and spiked levels; vials shaken on an orbital shaker at room temperature in the dark, sampled at two equilibration times; PDMS extracts and water quantified by LC-HRMS (Orbitrap); D from the slope of C_PDMS on C_w or their ratio. The following applies: PDMS (polydimethylsiloxane silicone sheet); phosphate buffer at three target pH values (the paper's methods).

A short description of data set [3]: monoprotic acid or base: log K of the neutral species extrapolated from the linear regression of D on the neutral fraction (from pKa and pH; the paper's eq. for monoprotic IOCs), the slope giving K of the neutral species; replicates column holds the table's 95% confidence limits. PDMS sheets cleaned by Soxhlet with ethyl acetate; batch shaking method with a mixture of all chemicals at several PDMS-mass to water-volume ratios and spiked levels; vials shaken on an orbital shaker at room temperature in the dark, sampled at two equilibration times; PDMS extracts and water quantified by LC-HRMS (Orbitrap); D from the slope of C_PDMS on C_w or their ratio. The conditions noted are these: PDMS (polydimethylsiloxane silicone sheet); phosphate buffer at three target pH values (the paper's methods).

Data on 23 compounds can be found in paper PMC10114720.

As to `CCCCCCCCn1sccc1=O`, the “log D PDMS/w (apparent distribution ratio at the stated pH)” value in data set [1] (pH 3) is 3.047 log units; D and K as the pape; in data set [1] (pH 7.4), 2.926 log units; D and K as the pape; in data set [1] (pH 11.5), 2.893 log units; D and K as the pape. For the same compound, the “log K PDMS/w (neutral species)” value in data set [2] was 2.956 log units; D and K as the pape.
For the compound `Cc1ccc(C=C2C(=O)C3(C)CCC2C3(C)C)cc1` (stereo not drawn), the “log D PDMS/w (apparent distribution ratio at the stated pH)” value in data set [1] (pH 3) is 3.9 log units; D and K as the pape; in data set [1] (pH 7.4) it was 3.912 log units; D and K as the pape; in data set [1] (pH 11.5), 3.742 log units; D and K as the pape. Also, in data set [2], the “log K PDMS/w (neutral species)” value was 3.848 log units; D and K as the pape.
Consider `CCCCCCCCCCCC(=O)NCC(C)O` (stereo not drawn), for which the “log D PDMS/w (apparent distribution ratio at the stated pH)” value in data set [1] (pH 3) was 3.188 log units; D and K as the pape; in data set [1] (pH 7.4), 3.329 log units; D and K as the pape; in data set [1] (pH 11.5), 3.181 log units; D and K as the pape. In addition, the “log K PDMS/w (neutral species)” value in data set [2] is 3.231 log units; D and K as the pape.
On to `N#Cc1nn(-c2c(Cl)cc(C(F)(F)F)cc2Cl)c(N)c1S(=O)(=O)C(F)(F)F`, for which the “log D PDMS/w (apparent distribution ratio at the stated pH)” value in data set [1] (pH 3) was 2.417 log units; D and K as the pape; in data set [1] (pH 7.4), 2.376 log units; D and K as the pape; in data set [1] (pH 11.5), 2.192 log units; D and K as the pape. In addition, the “log K PDMS/w (neutral species)” value in data set [2] was 2.329 log units; D and K as the pape.
In the case of `COC(=O)C(c1ccccc1Cl)N1CCc2sccc2C1` (stereo not drawn), the “log D PDMS/w (apparent distribution ratio at the stated pH)” value is 1.25 log units; D and K as the pape in data set [1] (pH 3); -0.5267 log units; D and K as the pape in data set [1] (pH 7.4). The “log K PDMS/w (neutral species)” value in data set [2] is 0.9169 log units; D and K as the pape.
On to `NC(=O)Nc1ccc(Cl)c(Cl)c1`, for which the “log D PDMS/w (apparent distribution ratio at the stated pH)” value in data set [1] (pH 3) is 0.5975 log units; D and K as the pape; in data set [1] (pH 7.4), 0.6543 log units; D and K as the pape; in data set [1] (pH 11.5) it was 0.6515 log units; D and K as the pape. In addition, the “log K PDMS/w (neutral species)” value in data set [2] was 0.6359 log units; D and K as the pape.
For the compound `CC(C)c1ccc2sc3ccccc3c(=O)c2c1`, the “log D PDMS/w (apparent distribution ratio at the stated pH)” value was 4.266 log units; D and K as the pape in data set [1] (pH 3); 4.252 log units; D and K as the pape in data set [1] (pH 7.4); 4.168 log units; D and K as the pape in data set [1] (pH 11.5). Also, the “log K PDMS/w (neutral species)” value in data set [2] is 4.227 log units; D and K as the pape.
With `CN(C)C(=O)Nc1ccccc1`, the “log D PDMS/w (apparent distribution ratio at the stated pH)” value in data set [1] (pH 3) is 0.45 log units; D and K as the pape; in data set [1] (pH 7.4), 0.473 log units; D and K as the pape; in data set [1] (pH 11.5) it was 0.443 log units; D and K as the pape. In addition, the “log K PDMS/w (neutral species)” value in data set [2] was 0.4555 log units; D and K as the pape.
On to `CN(C)S(=O)(=O)c1ccc(N)cc1`, for which the “log D PDMS/w (apparent distribution ratio at the stated pH)” value in data set [1] (pH 3) was -0.06167 log units; D and K as the pape; in data set [1] (pH 7.4), -0.02167 log units; D and K as the pape; in data set [1] (pH 11.5) it was 0.01333 log units; D and K as the pape. In addition, in data set [2], the “log K PDMS/w (neutral species)” value is -0.02333 log units; D and K as the pape.
In the case of `CCN(CC)C(=O)c1cccc(C)c1`, the “log D PDMS/w (apparent distribution ratio at the stated pH)” value was 1.611 log units; D and K as the pape in data set [1] (pH 3); 1.592 log units; D and K as the pape in data set [1] (pH 7.4); 1.633 log units; D and K as the pape in data set [1] (pH 11.5). Besides, the “log K PDMS/w (neutral species)” value in data set [2] was 1.611 log units; D and K as the pape.
`O=C(O)CCC(=O)c1ccc(F)cc1`: the “log D PDMS/w (apparent distribution ratio at the stated pH)” value in data set [1] (pH 3) was -0.02167 log units; D and K as the pape. For the same compound, the “log K PDMS/w (neutral species)” value in data set [3] is 0.05461 log units; D and K as the pape.
As for `c1ccc2[nH]c(-c3cscn3)nc2c1`, the “log D PDMS/w (apparent distribution ratio at the stated pH)” value in data set [1] (pH 3) is 0.5417 log units; D and K as the pape; in data set [1] (pH 7.4), 1.69 log units; D and K as the pape; in data set [1] (pH 11.5), 1.693 log units; D and K as the pape. Besides, in data set [3], the “log K PDMS/w (neutral species)” value is 1.855 log units; D and K as the pape.
As for `c1ccc2sc(N3CCOCC3)nc2c1`, the “log D PDMS/w (apparent distribution ratio at the stated pH)” value is 1.704 log units; D and K as the pape in data set [1] (pH 3); 1.897 log units; D and K as the pape in data set [1] (pH 7.4); 1.881 log units; D and K as the pape in data set [1] (pH 11.5). Besides, the “log K PDMS/w (neutral species)” value in data set [3] was 2.029 log units; D and K as the pape.
For the compound `Cc1nccn1CC1CCc2c(c3ccccc3n2C)C1=O` (stereo not drawn), the “log D PDMS/w (apparent distribution ratio at the stated pH)” value in data set [1] (pH 3) was -0.92 log units; D and K as the pape; in data set [1] (pH 7.4) it was 1.409 log units; D and K as the pape; in data set [1] (pH 11.5), 2.124 log units; D and K as the pape. The “log K PDMS/w (neutral species)” value in data set [3] is 2.203 log units; D and K as the pape.
In the case of `Clc1ccccc1C(c1ccccc1)(c1ccccc1)n1ccnc1`, the “log D PDMS/w (apparent distribution ratio at the stated pH)” value in data set [1] (pH 3) was 2.324 log units; D and K as the pape; in data set [1] (pH 7.4), 4.388 log units; D and K as the pape; in data set [1] (pH 11.5), 4.335 log units; D and K as the pape. Moreover, the “log K PDMS/w (neutral species)” value in data set [3] is 4.471 log units; D and K as the pape.
As to `CCNc1ccc2c(C)cc(=O)oc2c1`, the “log D PDMS/w (apparent distribution ratio at the stated pH)” value in data set [1] (pH 3) is 1.914 log units; D and K as the pape; in data set [1] (pH 7.4), 1.863 log units; D and K as the pape; in data set [1] (pH 11.5) it was 1.825 log units; D and K as the pape. In data set [3], the “log K PDMS/w (neutral species)” value was 2.015 log units; D and K as the pape.
Regarding `c1ccc2sc(NC3CCCCC3)nc2c1`, the “log D PDMS/w (apparent distribution ratio at the stated pH)” value in data set [1] (pH 3) is 2.092 log units; D and K as the pape; in data set [1] (pH 7.4) it was 3.079 log units; D and K as the pape; in data set [1] (pH 11.5), 3.04 log units; D and K as the pape. The “log K PDMS/w (neutral species)” value in data set [3] is 3.105 log units; D and K as the pape.
Turning to `Cc1cc(=O)oc2cc(N)ccc12`, the “log D PDMS/w (apparent distribution ratio at the stated pH)” value in data set [1] (pH 3) is 0.7917 log units; D and K as the pape; in data set [1] (pH 7.4) it was 0.8008 log units; D and K as the pape; in data set [1] (pH 11.5), 0.8475 log units; D and K as the pape. Also, the “log K PDMS/w (neutral species)” value in data set [3] was 0.9136 log units; D and K as the pape.
In the case of `NC(=O)/N=C1\SCCN1Cc1ccc(Cl)nc1`, the “log D PDMS/w (apparent distribution ratio at the stated pH)” value in data set [1] (pH 3) is 0.2411 log units; D and K as the pape; in data set [1] (pH 7.4) it was 0.3692 log units; D and K as the pape; in data set [1] (pH 11.5), 0.4142 log units; D and K as the pape. Besides, the “log K PDMS/w (neutral species)” value in data set [3] was 0.4822 log units; D and K as the pape.
`Clc1ccc(COC(Cn2ccnc2)c2ccc(Cl)cc2Cl)c(Cl)c1` (stereo not drawn): the “log D PDMS/w (apparent distribution ratio at the stated pH)” value in data set [1] (pH 3) was 2.616 log units; D and K as the pape; in data set [1] (pH 7.4), 4.581 log units; D and K as the pape; in data set [1] (pH 11.5), 4.53 log units; D and K as the pape. The “log K PDMS/w (neutral species)” value in data set [3] was 4.599 log units; D and K as the pape.
As for `O=C1Nc2ccc(Cl)cc2C(C#CC2CC2)(C(F)(F)F)O1` (stereo not drawn), the “log D PDMS/w (apparent distribution ratio at the stated pH)” value was 2.835 log units; D and K as the pape in data set [1] (pH 3); 2.884 log units; D and K as the pape in data set [1] (pH 7.4). Further, the “log K PDMS/w (neutral species)” value in data set [3] is 2.899 log units; D and K as the pape.
Consider `c1ccc2[nH]nnc2c1`, for which the “log D PDMS/w (apparent distribution ratio at the stated pH)” value is 0.055 log units; D and K as the pape in data set [1] (pH 3); 0.06625 log units; D and K as the pape in data set [1] (pH 7.4). Further, the “log K PDMS/w (neutral species)” value in data set [3] is 0.1268 log units; D and K as the pape.
On to `CC(C)(C)c1ccc(S(N)(=O)=O)cc1`, for which the “log D PDMS/w (apparent distribution ratio at the stated pH)” value in data set [1] (pH 3) is 1.11 log units; D and K as the pape; in data set [1] (pH 7.4), 1.067 log units; D and K as the pape; in data set [1] (pH 11.5), 1.073 log units; D and K as the pape. In addition, in data set [3], the “log K PDMS/w (neutral species)” value is 1.285 log units; D and K as the pape.
